Assay results from BindingDB's records for doi:10.1016/j.bmcl.2014.05.036 (AstraZeneca, 2014).

What was measured:
[1] = Inhibition of human BCL-2 overexpressed in mouse FDC-P1 cells assessed as cell viability after 24 hrs by Cell Titer Glo assay
[2] = Inhibition of human BCL-xL overexpressed in mouse FDC-P1 cells assessed as cell viability after 24 hrs by Cell Titer Glo assay

Row | SMILES | IC50 [1] [µM] | IC50 [2] [µM]
1 | O=C(NS(=O)(=O)c1ccc(N[C@H](CCN2CCOCC2)CSc2ccccc2)c(S(=O)(=O)C(F)(F)F)c1)c1ccc(N2CCN(Cc3ccccc3-c3ccc(Cl)cc3)CC2)cc1 | 0.014 | 0.064
2 | O=C(NS(=O)(=O)c1ccc(N[C@H](CCN2CCOCC2)CSc2ccccc2)c(S(=O)(=O)C(F)(F)F)c1)c1ccc(N2CCC([S@@+]([O-])c3ccccc3-c3ccc(Cl)cc3)CC2)cc1 | 0.434 | 1.72
3 | CN(C)CCOc1ccc(-c2ccc(Cl)cc2)c(CN2CCN(c3ccc(C(=O)NS(=O)(=O)c4ccc(N[C@H](CCN5CCOCC5)CSc5ccccc5)c(S(=O)(=O)C(F)(F)F)c4)cc3)CC2)c1 | 0.022 | 0.138
4 | CN(C)C(=O)COc1cccc(-c2ccc(Cl)cc2)c1CN1CCN(c2ccc(C(=O)NS(=O)(=O)c3ccc(N[C@H](CCN4CCOCC4)CSc4ccccc4)c(S(=O)(=O)C(F)(F)F)c3)cc2)CC1 | 0.045 | 0.226
5 | CN(C)CCOc1cccc(-c2ccc(Cl)cc2)c1CN1CCN(c2ccc(C(=O)NS(=O)(=O)c3ccc(N[C@H](CCN4CCOCC4)CSc4ccccc4)c(S(=O)(=O)C(F)(F)F)c3)cc2)CC1 | 0.004 | 0.033
6 | CN(C)C(=O)COc1ccc(-c2ccc(Cl)cc2)c(CN2CCN(c3ccc(C(=O)NS(=O)(=O)c4ccc(N[C@H](CCN5CCOCC5)CSc5ccccc5)c(S(=O)(=O)C(F)(F)F)c4)cc3)CC2)c1 | 0.187 | 2.09
7 | N#CC1(Cc2ccccc2-c2ccc(Cl)cc2)CCN(c2ccc(C(=O)NS(=O)(=O)c3ccc(N[C@H](CCN4CCOCC4)CSc4ccccc4)c(S(=O)(=O)C(F)(F)F)c3)cc2)CC1 | 0.545 | 2.82
8 | O=C(NS(=O)(=O)c1ccc(N[C@H](CCN2CCOCC2)CSc2ccccc2)c(S(=O)(=O)C(F)(F)F)c1)c1cnc(N2CCN(Cc3ccccc3-c3ccc(Cl)cc3)CC2)nc1 | 0.34 | 2.09
